#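 Values below derive from 48-hour exposures of cells grown in 96-well plates, with endpoints linearly interpolated between the two concentrations bracketing the appropriate inhibition level. At the GI50, growth is halved. The concentration for full growth arrest is given as TGI.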
# How the values were obtained:
# Experiment in all cases: NCI anticancer screen, dose series, 48 h
# [1] = system: KM12 colon
# [2] = system: EKVX NSCLC
# [3] = system: OVCAR-3 ovarian
# [4] = system: OVCAR-5 ovarian
# [5] = system: NCI-H460 lung
# [6] = system: OVCAR-8 ovarian
# [7] = system: SW-620 colon
# [8] = system: HOP-92 NSCLC
# [9] = system: K-562 leukemia
# [10] = system: HOP-62 NSCLC
Compound,TGI [1] [µM],TGI [2] [µM],TGI [3] [µM],TGI [4] [µM],TGI [5] [µM],TGI [6] [µM],TGI [7] [µM],TGI [8] [µM],TGI [9] [µM],TGI [10] [µM],GI50 [1] [µM],GI50 [2] [µM],GI50 [4] [µM],GI50 [6] [µM],GI50 [7] [µM],GI50 [8] [µM],GI50 [9] [µM],GI50 [10] [µM],GI50 [3] [µM]
Cc1cc(C)c(S(=O)(=O)N(CCCN)OCCCN)c(C)c1,> 100,> 100,> 100,> 100,> 100,> 100,> 100,> 100,> 100,> 100,–,–,–,–,–,–,–,–,–
CCN(CC)C(=S)SSCCO,30.1,39.7,–,31.5,–,38.7,26.5,27.7,18,> 100,15,20.1,17.7,19.3,13.6,14.6,4.21,> 100,–
CC1CCN(c2cc(-c3cc4ccccc4o3)oc(=O)c2C#N)CC1,> 100,> 100,–,> 100,> 100,> 100,> 100,79,> 100,–,–,–,–,–,–,–,–,–,–
Clc1ccc(-c2nnc(-c3nsc4ccccc34)o2)cc1,> 100,> 100,32,> 100,> 100,> 100,> 100,46.2,–,33.6,–,–,–,–,–,–,–,–,–
O=c1[nH]c(=S)[nH]c2c(C3OC(CO)C(O)C3O)nsc12 (stereo unspecified),–,> 100,> 100,> 100,> 100,> 100,> 100,> 100,> 100,> 100,–,–,–,–,–,–,–,–,–
Clc1cccc(C2SCc3nc4ccccc4n32)c1 (stereo unspecified),50.5,52.4,29.1,95.6,> 100,65.1,> 100,30.4,> 100,55.9,–,–,–,–,–,–,–,–,–
Fc1ccc(C(OCCN2CC3CC2CN3)c2ccc(F)cc2)cc1 (stereo unspecified),> 100,–,> 100,–,> 100,> 100,> 100,> 100,> 100,> 100,–,–,–,–,–,–,–,–,–
CC(C)(CC1(C)NC(=O)NC1=O)OCc1ccccc1 (stereo unspecified),> 100,> 100,> 100,> 100,> 100,> 100,> 100,> 100,> 100,> 100,–,–,–,–,–,–,–,–,–
CCOC(=O)[C@H]1Nc2c(cccc2[N+](=O)[O-])C2c3ccccc3CC21 (stereo partly specified),> 100,–,> 100,> 100,> 100,> 100,> 100,–,> 100,> 100,–,–,–,–,–,–,–,–,–
CCOc1cc(/C=C/C(=O)CC(=O)/C=C/c2ccc(OC(=O)CNCCN(CC)CC)c(OCC)c2)ccc1OC(=O)CNCCN(CC)CC,2.97,3.58,6.07,5.43,–,12.2,3.41,6.2,16.3,6.06,1.4,1.5,2.27,1.03,1.29,1.74,1.44,2.5,2.24
CC1=NN(C(=O)c2ccc(C)cc2)C(=O)C1N=Nc1ccccc1C(=O)O (stereo unspecified),> 100,> 100,> 100,> 100,> 100,> 100,> 100,> 100,> 100,> 100,–,–,–,–,–,–,–,–,–
N/C(=N\N=C/c1cc([N+](=O)[O-])cc([N+](=O)[O-])c1O)NO,> 100,> 100,> 100,> 87.3,> 100,> 100,> 100,> 100,> 91.2,> 39.1,–,–,–,–,–,–,–,–,–
Cc1ccc2oc3c(ccc(=O)n3C)c(=O)c2c1,> 100,> 100,> 100,> 100,> 100,> 100,> 100,> 100,> 100,> 100,–,–,–,–,–,–,–,–,–
c1csc(C(NC2=NCCO2)C2CC2)c1 (stereo unspecified),–,> 100,–,> 100,> 100,> 100,> 100,> 100,–,> 100,–,–,–,–,–,–,–,–,–
CO/C(=N\N=C(/c1ccccc1)C(F)(F)F)c1ccncc1,> 100,–,> 100,> 100,> 100,> 100,–,> 100,> 100,> 100,–,–,–,–,–,–,–,–,–

# Source: PubChem BioAssay (NCI)
